Measured values reported in ChEMBL document CHEMBL5528002, “Identification of selective 5-LOX and FLAP inhibitors as novel anti-inflammatory agents by ligand-based virtual screening” (Eur J Med Chem, 2024).
Active and inactive are the calls of the source. The calls are words filed in the database; no cut-off is given here.

Tests used:
Macrophage cell line [1] = assay: Effect on lipid mediator formation in human M1-like phenotype MDM cells by measuring 12-HEPE formation at 10 uM pre-incubated for 15 mins followed by SACM stimulation and measured after 90 mins by UPLC-MS/MS analysis relative to control; format: functional; settings: time 105 min, 1.75 h
Macrophage cell line [2] = assay: Effect on lipid mediator formation in human M1-like phenotype MDM cells by measuring TXB2 formation at 10 uM pre-incubated for 15 mins followed by SACM stimulation and measured after 90 mins by UPLC-MS/MS analysis relative to control; format: functional; settings: time 105 min, 1.75 h
Macrophage cell line [3] = assay: Effect on lipid mediator formation in human M2-like phenotype MDM cells by measuring 12-HETE formation at 10 uM pre-incubated for 15 mins followed by SACM stimulation and measured after 90 mins by UPLC-MS/MS analysis (reference value: 3325 +/- 789 pg/ml); format: functional; settings: time 105 min, 1.75 h
[4] = biological target: T1, Polyunsaturated fatty acid 5-lipoxygenase (Homo sapiens) (UniProt P09917); assay: Inhibition of 5-LOX in human Neutrophil at 10 uM preincubated with compound for 15 mins followed by A23187 addition measured after 10 mins by RP-HPLC analysis relative to control; format: cell-based; settings: time 25.0 min
T1 sequence (whole entry): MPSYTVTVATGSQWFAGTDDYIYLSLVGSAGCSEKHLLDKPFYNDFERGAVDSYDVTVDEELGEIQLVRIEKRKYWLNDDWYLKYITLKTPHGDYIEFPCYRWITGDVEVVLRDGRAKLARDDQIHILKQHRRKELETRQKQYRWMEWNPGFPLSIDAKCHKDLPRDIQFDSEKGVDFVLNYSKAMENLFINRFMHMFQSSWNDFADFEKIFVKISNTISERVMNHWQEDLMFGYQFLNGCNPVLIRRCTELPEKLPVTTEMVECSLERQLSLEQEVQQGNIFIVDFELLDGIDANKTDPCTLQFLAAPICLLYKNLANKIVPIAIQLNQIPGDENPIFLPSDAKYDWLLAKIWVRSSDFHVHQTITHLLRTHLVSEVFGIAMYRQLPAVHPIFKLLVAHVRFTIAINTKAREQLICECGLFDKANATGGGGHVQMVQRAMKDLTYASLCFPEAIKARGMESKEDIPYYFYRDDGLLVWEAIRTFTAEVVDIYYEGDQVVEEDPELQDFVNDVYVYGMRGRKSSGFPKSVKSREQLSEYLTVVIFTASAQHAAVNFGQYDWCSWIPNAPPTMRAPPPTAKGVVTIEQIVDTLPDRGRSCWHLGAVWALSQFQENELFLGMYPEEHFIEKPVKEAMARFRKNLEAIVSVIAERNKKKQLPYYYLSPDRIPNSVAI

[5] = biological target: T2, Bifunctional epoxide hydrolase 2 (Homo sapiens) (UniProt P34913); assay: Inhibition of human sEH assessed as enzyme remaining activity at 10 uM relative to control
T2 sequence (whole entry): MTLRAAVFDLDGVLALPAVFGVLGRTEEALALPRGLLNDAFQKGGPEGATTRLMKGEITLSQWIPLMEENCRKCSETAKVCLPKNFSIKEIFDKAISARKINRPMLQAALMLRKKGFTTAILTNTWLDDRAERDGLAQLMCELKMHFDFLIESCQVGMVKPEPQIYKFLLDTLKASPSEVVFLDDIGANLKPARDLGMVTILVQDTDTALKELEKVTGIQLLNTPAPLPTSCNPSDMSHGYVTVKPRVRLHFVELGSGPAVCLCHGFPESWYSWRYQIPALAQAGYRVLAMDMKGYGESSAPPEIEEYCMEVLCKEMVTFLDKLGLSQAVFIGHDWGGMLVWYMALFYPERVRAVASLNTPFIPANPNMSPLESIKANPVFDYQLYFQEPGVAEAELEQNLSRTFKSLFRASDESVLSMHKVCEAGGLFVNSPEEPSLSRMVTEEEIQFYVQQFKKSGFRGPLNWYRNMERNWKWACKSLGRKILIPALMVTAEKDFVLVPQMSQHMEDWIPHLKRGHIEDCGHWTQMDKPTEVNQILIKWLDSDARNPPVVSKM

Macrophage cell line [6] = assay: Effect on lipid mediator formation in human M2-like phenotype MDM cells by measuring t-LTB4 formation at 10 uM pre-incubated for 15 mins followed by SACM stimulation and measured after 90 mins by UPLC-MS/MS analysis (reference value: 426 +/- 49 pg/ml); format: functional; settings: time 105 min, 1.75 h
Macrophage cell line [7] = assay: Effect on lipid mediator formation in human M2-like phenotype MDM cells by measuring 15-HEPE formation at 10 uM pre-incubated for 15 mins followed by SACM stimulation and measured after 90 mins by UPLC-MS/MS analysis relative to control; format: functional; settings: time 105 min, 1.75 h
[8] = biological target: T3, Polyunsaturated fatty acid 5-lipoxygenase (Homo sapiens, UniProt P09917); assay: Inhibition of 5-LOX in human Neutrophil using arachidonic acid as substrate preincubated with compound for 15 mins followed by substrate and A23187 addition measured after 10 mins by RP-HPLC analysis; format: cell-based
T3 sequence (P09917 whole entry): T1 sequence (whole entry)

Macrophage cell line [9] = assay: Effect on lipid mediator formation in human M2-like phenotype MDM cells by measuring 7-HDHA formation at 10 uM pre-incubated for 15 mins followed by SACM stimulation and measured after 90 mins by UPLC-MS/MS analysis (reference value: 315 +/- 55 pg/ml); format: functional; settings: time 105 min, 1.75 h
Macrophage cell line [10] = assay: Effect on lipid mediator formation in human M2-like phenotype MDM cells by measuring 4-HDHA formation at 10 uM pre-incubated for 15 mins followed by SACM stimulation and measured after 90 mins by UPLC-MS/MS analysis relative to control; format: functional; settings: time 105 min, 1.75 h
Macrophage cell line [11] = assay: Effect on lipid mediator formation in human M1-like phenotype MDM cells by measuring 5-HETE formation at 10 uM pre-incubated for 15 mins followed by SACM stimulation and measured after 90 mins by UPLC-MS/MS analysis relative to control; format: functional; settings: time 105 min, 1.75 h
Macrophage cell line [12] = assay: Effect on lipid mediator formation in human M2-like phenotype MDM cells by measuring 5S,6R-diHETE formation at 10 uM pre-incubated for 15 mins followed by SACM stimulation and measured after 90 mins by UPLC-MS/MS analysis relative to control; format: functional; settings: time 105 min, 1.75 h
Macrophage cell line [13] = assay: Effect on lipid mediator formation in human M1-like phenotype MDM cells by measuring LTB4 formation at 10 uM pre-incubated for 15 mins followed by SACM stimulation and measured after 90 mins by UPLC-MS/MS analysis (reference value: 1413 +/- 452 pg/ml); format: functional; settings: time 105 min, 1.75 h
Macrophage cell line [14] = assay: Effect on lipid mediator formation in human M2-like phenotype MDM cells by measuring 5,15-diHETE formation at 10 uM pre-incubated for 15 mins followed by SACM stimulation and measured after 90 mins by UPLC-MS/MS analysis relative to control; format: functional; settings: time 105 min, 1.75 h
Macrophage cell line [15] = assay: Effect on lipid mediator formation in human M2-like phenotype MDM cells by measuring MaR2 formation at 10 uM pre-incubated for 15 mins followed by SACM stimulation and measured after 90 mins by UPLC-MS/MS analysis (reference value: 16 +/- 1 pg/ml); format: functional; settings: time 105 min, 1.75 h
[16] = Antioxidant activity assessed as DPPH radical scavenging activity at 1 uM incubated for 30 min by DPPH assay; format: functional
Macrophage cell line [17] = assay: Effect on lipid mediator formation in human M1-like phenotype MDM cells by measuring PGE2 formation at 10 uM pre-incubated for 15 mins followed by SACM stimulation and measured after 90 mins by UPLC-MS/MS analysis (reference value: 1789 +/- 871 pg/ml); format: functional; settings: time 105 min, 1.75 h

SMILES | Activity (Macrophage cell line [1]) | Activity (Macrophage cell line [2]) | Activity (Macrophage cell line [3]) | inhibition [4] | Activity [5] | Activity (Macrophage cell line [6]) | Activity (Macrophage cell line [7]) | IC50 [8] | Activity (Macrophage cell line [9]) | Activity (Macrophage cell line [10]) | Activity (Macrophage cell line [11]) | Activity (Macrophage cell line [12]) | Activity (Macrophage cell line [13]) | Activity (Macrophage cell line [14]) | Activity (Macrophage cell line [15]) | Activity [16] | Activity (Macrophage cell line [17])
COc1ccc(C2=C/C(=C/c3ccc(O)cc3O)C(=O)O2)cc1 | 92% | 94% | 3796 pg/mL | > 50% | 71.5% | 48 pg/mL | 157% | 0.9 µM | 383 pg/mL | 85% | 7% | 4% | 115 pg/mL | 39% | 36 pg/mL | inactive | 1656 pg/mL
Oc1ccc(CCC2CCC(c3ccc(O)cc3)CO2)cc1 (centres undefined) | 90% | 94% | 4047 pg/mL | > 50% | 103% | 84 pg/mL | 140% | 2.1 µM | 364 pg/mL | 100% | 13% | 7% | 79 pg/mL | 61% | 31 pg/mL | inactive | 1236 pg/mL
